Test results reported in PMC10583863 (European journal of medicinal chemistry, 2022).

Key:
Type in all cases: cell-based, Mycobacterium tuberculosis
53.3 (Rv2466c, W28S) = tested on: 53.3 (Rv2466c, W28S)
53.8 (Rv0579, L240V) = tested on: 53.8 (Rv0579, L240V)
NTB1 (dprE1, G387S) = tested on: NTB1 (dprE1, G387S)
DR1 (mmpl3, V681I) = tested on: DR1 (mmpl3, V681I)
88.1 (coaA, Q207R) = tested on: 88.1 (coaA, Q207R)
88.7 (pyrG, V186G) = tested on: 88.7 (pyrG, V186G)

Measured: MIC90

NNC(=O)c1ccncc1 [INH, Isoniazide]
0.025 µg/mL: all assays above
